In patent US10407422B2, “Triazolopyridine inhibitors of myeloperoxidase” (priority 2015, dated 2019):

Legend:
myeloperoxidase (MPO) [1] = molecular target: T1, myeloperoxidase (MPO) (Homo sapiens (Human), UniProt P05164); experiment: MPO chlorination assay (APF assay); format: biochemical; details: potency range class
Procedure: [formula] where A=minimal Y value (activity level of inhibited sample), B=maximal Y value (activity level of uninhibited sample), C=Log IC50, D=Hill Slope, x=concentration of inhibitor. MPO Chlorination Assay (APF Assay) MPO chlorination activity was measured in 100 mM KPi (pH 7.4) by utilizing the non-fluorescent reagent Aminophenyl fluorescein (APF, Invitrogen Cat. #A36003). APF is cleaved by (—OCl) to yield the fluorescent compound fluorescein. Reactions were carried out in 50 μL total volume by adding a 25 μL mixture of 200 pM myeloperoxidase and 120 mM NaCl to 100 nL inhibitor in 100% DMSO in a 384 well, non-binding surface clear bottom plate (Corning #3655). Enzyme, inhibitor, and chloride were preincubated for ten minutes at room temperature. After the ten minute preincubation, 25 μL of an APF mixture containing […], 120 mM NaCl and 10 μM H2O2 was added to the plate using the internal dispensing system of a Hammatsu FDSS 6000. Kinetic determinations were carried out immediately on the FDSS 6000 (3 minute kinetic read, 1 read every second, ex: 485 nm, em: 535 nm). IC50 values for inhibitors were calculated by taking the slope of the linear portion of the kinetic measurement (20 seconds to ˜80-120 secs). IC50 values were calculated by determining the slope of the linear portion of the kinetic trace […], and using that calculated slope to determine % inhibition occurring at each concentration of inhibitor using the following equation: [formula] where A=minimal Y value (activity level of inhibited sample), B=maximal Y value (activity level of uninhibited sample), C=Log IC50, D=Hill Slope, x=concentration of inhibitor. EPX Bromination Assay

myeloperoxidase (MPO) [2] = molecular target: T1, myeloperoxidase (MPO); experiment: MPO peroxidation assay (Amplex Red assay); format: biochemical; details: potency range class
Procedure: MPO Peroxidation Assay (Amplex Red Assay) MPO peroxidation activity was measured in 100 mM KPi (pH 7.4) by utilizing the non-fluorescent reagent Amplex Red (Invitrogen Cat. #A12222) which can be oxidized to the highly fluorescent resorufin. Amplex Red is oxidized by the peroxidase action of MPO to resorufin. Reactions were carried out in 50 μL total volume by adding a 25 μL mixture of 200 pM myeloperoxidase and 40 nM H2O2(Sigma #349887) to 100 nL inhibitor in 100% DMSO in a 384 well Perkin Elmer Optiplate. Enzyme and compound were preincubated for ten minutes at room temperature. After the ten minute preincubation, 25 μL of an Amplex Red mixture containing 200 μM Amplex Red and 10 mM H2O2 was added to the plate. Kinetic determinations were carried out immediately on a Perkin Elmer Envision (15 minute kinetic read, Ex: 535 nm, Em: 590 nm). IC50 values were calculated by determining the slope of the linear portion of the kinetic trace (180-540 secs), and using that calculated slope to determine % inhibition occurring at each concentration of inhibitor using the following equation: [formula] where A=minimal Y value (activity level of inhibited sample), B=maximal Y value (activity level of uninhibited sample), C=Log IC50, D=Hill Slope, x=concentration of inhibitor. MPO Chlorination Assay (APF Assay)

T1 sequence (P05164 49-745): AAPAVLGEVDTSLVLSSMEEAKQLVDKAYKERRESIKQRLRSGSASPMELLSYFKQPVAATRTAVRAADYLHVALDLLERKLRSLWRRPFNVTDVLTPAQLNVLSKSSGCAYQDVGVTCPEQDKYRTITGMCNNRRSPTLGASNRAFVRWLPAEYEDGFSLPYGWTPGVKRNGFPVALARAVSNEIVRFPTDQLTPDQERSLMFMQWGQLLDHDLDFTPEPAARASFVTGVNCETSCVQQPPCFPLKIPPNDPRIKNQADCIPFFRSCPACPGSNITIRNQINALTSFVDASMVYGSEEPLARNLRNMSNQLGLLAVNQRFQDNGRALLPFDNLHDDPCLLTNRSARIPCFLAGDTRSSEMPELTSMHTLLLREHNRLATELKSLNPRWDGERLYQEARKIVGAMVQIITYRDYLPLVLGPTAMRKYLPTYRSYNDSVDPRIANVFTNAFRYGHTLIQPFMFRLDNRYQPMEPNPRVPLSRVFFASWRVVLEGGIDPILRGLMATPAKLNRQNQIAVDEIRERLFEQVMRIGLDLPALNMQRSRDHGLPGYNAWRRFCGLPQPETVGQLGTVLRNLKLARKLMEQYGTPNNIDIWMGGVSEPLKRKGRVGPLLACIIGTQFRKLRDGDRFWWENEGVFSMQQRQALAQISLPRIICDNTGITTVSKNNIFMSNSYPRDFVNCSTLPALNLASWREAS

Row | IC50 (myeloperoxidase (MPO) [1]) [nM] | IC50 (myeloperoxidase (MPO) [2]) [nM] | Compound
1 | 1 to 100 | 1 to 100 | Nc1cc(Cc2cnn(Cc3cccc(OC(F)F)c3)c2)c2nn[nH]c2n1 [Example 61, 7-((1-(3-(Difluoromethoxy)benzyl)-1H-pyrazol-4-yl)methyl)-3H-[1,2,3]triazolo[4,5-b]pyridin-5-amine]
2 | 101 to 999 | 1 to 100 | Nc1cc(Cc2cnn(Cc3cccc(C(F)(F)F)c3)c2)c2nn[nH]c2n1 [Example 62, 7-((1-(3-(Trifluoromethyl)benzyl)-1H-pyrazol-4-yl)methyl)-3H-[1,2,3]triazolo[4,5-b]pyridin-5-amine]
3 | 101 to 999 | 1 to 100 | Nc1cc(Cc2cnn(Cc3ccc(CO)cc3)c2)c2nn[nH]c2n1 [Example 64, (4-((4-((5-Amino-3H-[1,2,3]triazolo[4,5-b]pyridin-7-yl)methyl)-1H-pyrazol-1-yl)methyl)phenyl)methanol]
4 | 101 to 999 | 101 to 999 | Nc1cc(Cc2cnn(CC3CCN(C(=O)OCc4ccccc4)CC3)c2)c2nn[nH]c2n1 [Example 65, Benzyl 4-((4-((5-amino-3H-[1,2,3]triazolo[4,5-b]pyridin-7-yl)methyl)-1H-pyrazol-1-yl)methyl)piperidine-1-carboxylate]
5 | 101 to 999 | 101 to 999 | Nc1cc(Cc2cnn(C3CCNC3)c2)c2nn[nH]c2n1 (centres unmarked) [Example 66, 7-((1-(Pyrrolidin-3-yl)-1H-pyrazol-4-yl)methyl)-3H-[1,2,3]triazolo[4,5-b]pyridin-5-amine]
6 | 1 to 100 | 1 to 100 | Nc1cc(Cc2cnn(Cc3cccc(Cc4ccccc4)c3)c2)c2nn[nH]c2n1 [Example 67, 7-((1-(3-Benzylbenzyl)-1H-pyrazol-4-yl)methyl)-3H-[1,2,3]triazolo[4,5-b]pyridin-5-amine]
7 | 101 to 999 | 1 to 100 | Nc1cc(Cc2cnn(Cc3ccc4cc(O)ccc4c3)c2)c2nn[nH]c2n1 [Example 68, 6-((4-((5-Amino-3H-[1,2,3]triazolo[4,5-b]pyridin-7-yl)methyl)-1H-pyrazol-1-yl)methyl)naphthalen-2-ol]
8 | 1 to 100 | 101 to 999 | CN(C)CCOc1ccc2cc(Cn3cc(Cc4cc(N)nc5[nH]nnc45)cn3)ccc2c1 [Example 69, 7-((1-((6-(2-(Dimethylamino)ethoxy)naphthalen-2-yl)methyl)-1H-pyrazol-4-yl)methyl)-3H-[1,2,3]triazolo[4,5-b]pyridin-5-amine]
9 | 101 to 999 | 101 to 999 | Cc1cc(Cc2cc(N)nc3[nH]nnc23)no1 [Example 71, 7-[(5-Methyl-1,2-oxazol-3-yl)methyl]-3H-[1,2,3]triazolo[4,5-b]pyridin-5-amine]
10 | 101 to 999 | 1 to 100 | CN(C)CCNC(=O)c1ccc(Cn2cc(Cc3cc(N)nc4[nH]nnc34)cn2)cc1 [Example 72, 4-((4-((5-Amino-3H-[1,2,3]triazolo[4,5-b]pyridin-7-yl)methyl)-1H-pyrazol-1-yl)methyl)-N-(2-(dimethylamino)ethyl)benzamide]
11 | 101 to 999 | 1 to 100 | Nc1cc(Cc2cnn(Cc3ccc(C(=O)NCc4ncc[nH]4)cc3)c2)c2nn[nH]c2n1 [Example 74, N-((1H-Imidazol-2-yl)methyl)-4-((4-((5-amino-3H-[1,2,3]triazolo[4,5-b]pyridin-7-yl)methyl)-H-pyrazol-1-yl)methyl)benzamide]
12 | 101 to 999 | 101 to 999 | Nc1cc(Cc2cnn(Cc3ccc(C(=O)NCCN4CCOCC4)cc3)c2)c2nn[nH]c2n1 [Example 75, 4-{[4-({5-Amino-3H-[1,2,3]triazolo[4,5-b]pyridin-7-yl}methyl)-1H-pyrazol-1-yl]methyl}-N-[2-(morpholin-4-yl)ethyl]benzamide]
13 | 101 to 999 | 1 to 100 | Nc1cc(Cc2cnn(Cc3ccc(C(=O)NCCO)cc3)c2)c2nn[nH]c2n1 [Example 76, 4-{[4-({5-Amino-3H-[1,2,3]triazolo[4,5-b]pyridin-7-yl}methyl)-1H-pyrazol-1-yl]methyl}-N-(2-hydroxyethyl)benzamide]
14 | 101 to 999 | 1 to 100 | CN(C)CCN(C)C(=O)c1ccc(Cn2cc(Cc3cc(N)nc4[nH]nnc34)cn2)cc1 [Example 77, 4-{[4-({5-Amino-3H-[1,2,3]triazolo[4,5-b]pyridin-7-yl}methyl)-1H-pyrazol-1-yl]methyl}-N-[2-(dimethylamino)ethyl]-N-methylbenzamide]
15 | 101 to 999 | 1 to 100 | Nc1cc(Cc2cnn(Cc3ccc(C(=O)NCc4ccn[nH]4)cc3)c2)c2nn[nH]c2n1 [Example 78, 4-{[4-({5-Amino-3H-[1,2,3]triazolo[4,5-b]pyridin-7-yl}methyl)-1H-pyrazol-1-yl]methyl}-N-(1H-pyrazol-5-ylmethyl)benzamide]
16 | 101 to 999 | 1 to 100 | Nc1cc(Cc2cnn(Cc3ccc(C(=O)NCc4cn[nH]c4)cc3)c2)c2nn[nH]c2n1 [Example 79, 4-{[4-({5-Amino-3H-[1,2,3]triazolo[4,5-b]pyridin-7-yl}methyl)-1H-pyrazol-1-yl]methyl}-N-(1H-pyrazol-4-ylmethyl)benzamide]
17 | 101 to 999 | 1 to 100 | Nc1cc(Cc2cnn(Cc3ccc(C(=O)NCc4ccccn4)cc3)c2)c2nn[nH]c2n1 [Example 80, 4-{[4-({5-Amino-3H-[1,2,3]triazolo[4,5-b]pyridin-7-yl}methyl)-1H-pyrazol-1-yl]methyl}-N-(pyridin-2-ylmethyl)benzamide]
18 | 101 to 999 | 1 to 100 | Nc1cc(Cc2cnn(Cc3ccc(C(=O)NCc4ncn[nH]4)cc3)c2)c2nn[nH]c2n1 [Example 81, 4-{[4-({5-Amino-3H-[1,2,3]triazolo[4,5-b]pyridin-7-yl}methyl)-1H-pyrazol-1-yl]methyl}-N-(1H-1,2,4-triazol-5-ylmethyl)benzamide]
19 | 101 to 999 | 1 to 100 | CN(Cc1ncc[nH]1)C(=O)c1ccc(Cn2cc(Cc3cc(N)nc4[nH]nnc34)cn2)cc1 [Example 82, 4-{[4-({5-Amino-3H-[1,2,3]triazolo[4,5-b]pyridin-7-yl}methyl)-1H-pyrazol-1-yl]methyl}-N-(1H-imidazol-2-ylmethyl)-N-methylbenzamide]
20 | 101 to 999 | 1 to 100 | Nc1cc(Cc2cnn(Cc3ccc(C(=O)NCCc4cnc[nH]4)cc3)c2)c2nn[nH]c2n1 [Example 83, 4-{[4-({5-Amino-3H-[1,2,3]triazolo[4,5-b]pyridin-7-yl}methyl)-1H-pyrazol-1-yl]methyl}-N-[2-(1H-imidazol-4-yl)ethyl]benzamide]
21 | 101 to 999 | 101 to 999 | Nc1cc(Cc2cnn(Cc3ccc(C(=O)N4CCC(O)C4)cc3)c2)c2nn[nH]c2n1 (centres unmarked) [Example 84, 1-(4-{[4-({5-Amino-3H-[1,2,3]triazolo[4,5-b]pyridin-7-yl}methyl)-1H-pyrazol-1-yl]methyl}benzoyl)pyrrolidin-3-ol]
22 | 101 to 999 | 1 to 100 | CN1CCN(C(=O)c2ccc(Cn3cc(Cc4cc(N)nc5[nH]nnc45)cn3)cc2)CC1 [Example 85, 7-[(1-{[4-(4-Methylpiperazine-1-carbonyl)phenyl]methyl}-1H-pyrazol-4-yl)methyl]-3H-[1,2,3]triazolo[4,5-b]pyridin-5-amine]
23 | 101 to 999 | 1 to 100 | Nc1cc(Cc2cnn(Cc3ccc(C(=O)NCc4ccncc4)cc3)c2)c2nn[nH]c2n1 [Example 86, 4-{[4-({5-Amino-3H-[1,2,3]triazolo[4,5-b]pyridin-7-yl}methyl)-1H-pyrazol-1-yl]methyl}-N-(pyridin-4-ylmethyl)benzamide]
24 | 101 to 999 | 1 to 100 | CC(CO)NC(=O)c1ccc(Cn2cc(Cc3cc(N)nc4[nH]nnc34)cn2)cc1 (centres unmarked) [Example 87, 4-{[4-({5-Amino-3H-[1,2,3]triazolo[4,5-b]pyridin-7-yl}methyl)-1H-pyrazol-1-yl]methyl}-N-(1-hydroxypropan-2-yl)benzamide]
25 | 101 to 999 | 1 to 100 | CCCNC(=O)c1ccc(Cn2cc(Cc3cc(N)nc4[nH]nnc34)cn2)cc1 [Example 88, 4-{[4-({5-Amino-3H-[1,2,3]triazolo[4,5-b]pyridin-7-yl}methyl)-1H-pyrazol-1-yl]methyl}-N-propylbenzamide]
